Results on one compound are retold here after patent US8188096B2, “Protein kinase targeted therapeutics” (Northwestern University, priority 2006, dated 2012).

In one data set the target is CK1δ (Homo sapiens, UniProt P48730). As to the kind of experiment: in vitro phosphorylation of a standard protein or peptide substrate by purified kinase. Conditions: 100 mM ATP, increasing concentrations of compound, percent of maximal enzyme activity (FIG. 2). In kind it is biochemical.
Data set [1] concerns LPS-induced serum cytokine levels. As to the kind of experiment: LPS-induced serum cytokine levels in acute inflammation mouse model (ELISA). It counts as in vivo. To be noted: 25 mg/kg oral gavage, LPS 10 mg/kg i.p. 30 minutes later, serum after 6 hr, ELISA (FIG. 3). (In general: An ELISA detects its analyte on a solid surface through an enzyme-linked reagent.)
Data set [2] in a line: metabolic stability in human liver microsome screen. It counts as in vitro ADME. Conditions: human liver microsome screen (FIG. 4C). In general terms: Liver microsomes are a subcellular fraction often used to study metabolism.
A short description of data set [3]: plasma levels after oral administration (oral bioavailability). It counts as in vivo. Conditions: plasma levels after oral administration (FIG. 4A).
Data set [4] can be described thus: liver histological toxicity screen after chronic administration. In kind it is in vivo. Conditions: after chronic administration (FIG. 4B).

CK1δ, sequence (P48730 whole entry): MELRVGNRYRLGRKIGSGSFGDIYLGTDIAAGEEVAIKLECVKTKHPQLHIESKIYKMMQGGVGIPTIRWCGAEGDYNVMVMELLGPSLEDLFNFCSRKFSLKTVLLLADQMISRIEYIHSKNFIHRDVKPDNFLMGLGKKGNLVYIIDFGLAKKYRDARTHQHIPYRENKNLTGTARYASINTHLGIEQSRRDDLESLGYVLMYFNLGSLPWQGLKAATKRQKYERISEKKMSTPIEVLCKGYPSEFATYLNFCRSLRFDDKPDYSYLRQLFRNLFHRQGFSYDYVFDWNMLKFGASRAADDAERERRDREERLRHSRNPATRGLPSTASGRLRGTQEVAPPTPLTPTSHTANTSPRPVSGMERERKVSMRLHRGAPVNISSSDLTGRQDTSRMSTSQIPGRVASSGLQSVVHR

`c1ccc(-c2nnc(N3CCN(c4ncccn4)CC3)cc2-c2ccncc2)cc1` [MW01-2-069aSRM]: the “inhibition of CK1δ enzyme activity” value on CK1δ is “inhibit in vitro p38 MAPK and CK1δ enzyme activity in a concentration dependent manner”. Further, in data set [1], the “inhibition of LPS-induced serum cytokine levels” value was “inhibit LPS-induced serum cytokine levels in vivo”. Moreover, in data set [2], the metabolic stability result is listed as “metabolic stability is demonstrated”. The oral bioavailability result in data set [3] is “oral bioavailability, safety and metabolic stability is demonstrated”. The liver histological toxicity result in data set [4] is on record as “no liver histological toxicity”.
